What all share (assay type): cell-based, white clover (Trifolium repense L.)
The test system of assay [1] is shoots of the white clover. In words: Effects of BAP, IAA and NAA on the shoot propagation of the clover. Here is the method:
Furthermore, in order to promote mutation and cell division of shoots of the white clover, the shoots were treated with cold water of 5° C. for 20 seconds, which in turn were transferred to a solution of Ethyl Methane Sulfonate of 0.2 μg/L for 3 seconds. Then, the shoots were washed with sterile water. […] The incubation of the shoots was carried out under the conditions of temperature of 21° C. and luminous intensity of 500 lux.

Assay [2] deals with cut segments of the white clover. Description: Effects of Ethyl Methane Sulfonate on the mutation of the shoots. The following applies: for Color of leaves / Heliophilous / Mutation ratio (%) / Numbers of leaves / Numbers of stems / Shape of leaves: 3.0 sec. From the text: Two hundreds of wild-type white clovers, which were native in Korea, were harvested, wherein the respective clovers had three leaves and a stem of a length of about 7 cm.
All leaves were removed from the clovers. Then, the stems of the clovers were cut at a length of about 3˜4 cm, which are transferred to a conical flask and subjected to a solution of ethyl alcohol of 70% for 30 seconds to sterilize the stems. Next, the segments of stems were washed with sterile water, which in turn were transferred to a solution of ethyl alcohol of 70% for 15 minutes to sterilize surfaces of the stem segments. Continuously, the stem segments were washed with sterile water three times.
The sterilized segments of the white clovers were cut again at a length of 2˜3 mm in a clean bench, wherein each of the cut segments included growing point. The resulting cut segments of the white clover were treated with Ethyl Methane Sulfonate in order to induce mutation.
Referring to the Table 1, shoots were respectively treated with Ethyl Methane Sulfonate of 0.1˜0.3 μg/L for 3 seconds. As the result, when the shoots were treated with Ethyl Methane Sulfonate of 0.2 μg/L, the ratio, regarding the growth of four leaves from the stem, is highest.

The subject of assay [3] is cultivated shoots of the clover. Description: Effects of IAA/IBA and NAA on shoot growth and rooting of the cultivated shoots.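 For Length of roots (cm): Auxin doses in mg/L.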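 For Length of shoots (cm): Auxin doses in mg/L.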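 For Numbers of roots/segments: Auxin doses in mg/L.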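 For Numbers of shoots/segments: Auxin doses in mg/L.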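 For Weight of shoots/segments (g): Auxin doses in mg/L.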 The conditions noted are these: for Length of roots (cm) / Length of shoots (cm) / Numbers of roots/segments / Numbers of shoots/segments / Weight of shoots/segments: basic MS medium + SUCROSE 20 g/L. On the procedure:
The cultivation was carried out under the conditions of acidity of pH 5.5, 22˜25° C. and luminous intensity of 800 lux.

Assay [4] relates to shoots of the clover. Description: Effects of the density of sucrose in the medium on the propagation and growth of shoots. On the procedure: Meanwhile, sucrose of […] was added to the medium in order to reduce the callus formation and the transparency ratio during the cultivation of the shoots.
Where [5] appears, read: medium with BAP of 1.0˜2.0 mg/L.
Where [6] appears, read: Sucrose 10 mg/L, basic MS medium + BAP 2.0 mg/L + IAA 0.5 mg/L.
Setting [7] is: Sucrose 15 mg/L, basic MS medium + BAP 2.0 mg/L + IAA 0.5 mg/L.
Setting [8] is: Sucrose 20 mg/L, basic MS medium + BAP 2.0 mg/L + IAA 0.5 mg/L.
Where [9] appears, read: Sucrose 25 mg/L, basic MS medium + BAP 2.0 mg/L + IAA 0.5 mg/L.
Where [10] appears, read: Sucrose 30 g/L, basic MS medium + BAP 2.0 mg/L + IAA 0.5 mg/L.

In the case of `c1ccc(CNc2ncnc3nc[nH]c23)cc1` [BAP, 6-Benzylaminopurine], in assay [1] (in proportion to the density of the BAP), the “incubation efficiency of the shoots” value was “enhanced”. Further, in assay [1] (setting [5]), the “average number of the shoots” value was “more than 2.7” and the transparency ratio entry is on record as “more than 42.3%”.

Consider `CCOS(C)(=O)=O` [EMS, Ethyl Methane Sulfonate], for which, in assay [2] (EMS 0.1 μg/L), the Color of leaves entry is “Light”, the Heliophilous turned out to be 0.3c, the “Mutation ratio (%)” value is listed as 12c % and the Numbers of leaves turned out to be 4c. For the same molecule, in assay [2] (EMS 0.1 μg/L), the Numbers of stems stood at 6c and the Shape of leaves entry is recorded as “Heart”. For the same molecule, in assay [2] (EMS 0.2 μg/L), the Color of leaves entry is given as “Light”, the Heliophilous came out at 1.5a, the “Mutation ratio (%)” value is reported as 25a % and the Numbers of leaves worked out at 4a. Also, in assay [2] (EMS 0.2 μg/L), the Numbers of stems is 10b and the Shape of leaves result is “Heart”. For the same molecule, in assay [2] (EMS 0.3 μg/L), the Color of leaves result is recorded as “Light”, the Heliophilous came out at 2.5b, the “Mutation ratio (%)” value is 18b % and the Numbers of leaves was 4b. For the same molecule, in assay [2] (EMS 0.3 μg/L), the Numbers of stems was 8b and the Shape of leaves entry is “Heart”. Besides, the “ratio regarding the growth of four leaves from the stem” value in assay [2] (Ethyl Methane Sulfonate of 0.2 μg/L for 3 seconds, among 0.1˜0.3 μg/L) is on record as “highest”.

As for `O=C(O)CCCc1c[nH]c2ccccc12` [IBA], in assay [3] (IBA 0.5), the “Length of roots (cm)” value is 4.9 a cm, the “Length of shoots (cm)” value is 5.1 a cm, the Numbers of roots/segments is reported as 2.2 ab and the Numbers of shoots/segments amounted to 1.4 a. The “Weight of shoots/segments” value in assay [3] (IBA 0.5) is listed as 3.4 g. Also, in assay [3] (IBA 1.5), the “Length of roots (cm)” value came to 4.6 a cm, the “Length of shoots (cm)” value is on record as 5.3 a cm, the Numbers of roots/segments is recorded as 2.8 ab and the Numbers of shoots/segments came to 1.2 a. Further, in assay [3] (IBA 1.5), the “Weight of shoots/segments” value worked out at 4.66 g. Besides, in assay [3] (IBA 2.0), the “Length of roots (cm)” value came out at 5.1 a cm, the “Length of shoots (cm)” value was found to be 5.1 a cm, the Numbers of roots/segments was found to be 3.4 a and the Numbers of shoots/segments turned out to be 1.0 a. Also, the “Weight of shoots/segments” value in assay [3] (IBA 2.0) amounted to 4.21 g. Moreover, in assay [3] (IBA 5.0), the “Length of roots (cm)” value amounted to 3.1 b cm, the “Length of shoots (cm)” value turned out to be 4.7 a cm, the Numbers of roots/segments was found to be 1.2 b and the Numbers of shoots/segments was found to be 1. Besides, in assay [3] (IBA 5.0), the “Weight of shoots/segments” value was 3.33 g. Further, the “rooting of the shoots” value in assay [3] (IBA of 0.5 mg/L added to the basic MS medium) was “induced well”.

On to `O=C(O)Cc1cccc2ccccc12` [NAA, α-Naphthaleneacetic Acid], for which, in assay [3] (NAA 0.5), the “Length of roots (cm)” value is 4.8 a cm, the “Length of shoots (cm)” value is 4.6 a cm, the Numbers of roots/segments is recorded as 3.2 a and the Numbers of shoots/segments is on record as 1.0 a. Besides, in assay [3] (NAA 0.5), the “Weight of shoots/segments” value is recorded as 3.92 g. Moreover, in assay [3] (NAA 1.0), the “Length of roots (cm)” value worked out at 3.6 ab cm, the “Length of shoots (cm)” value was found to be 4.8 a cm, the Numbers of roots/segments was determined as 2.5 ab and the Numbers of shoots/segments is 1.1 a. Also, the “Weight of shoots/segments” value in assay [3] (NAA 1.0) came out at 4.21 g. For the same molecule, in assay [3] (NAA 2.0), the “Length of roots (cm)” value was 3.4 b cm, the “Length of shoots (cm)” value is listed as 4.8 a cm, the Numbers of roots/segments is 1.9 b and the “Weight of shoots/segments” value came out at 3.42 g. Also, in assay [3] (NAA 5.0), the “Length of roots (cm)” value is on record as 3.2 b cm, the “Length of shoots (cm)” value amounted to 4.2 a cm, the Numbers of roots/segments is reported as 1.6 b and the Numbers of shoots/segments came to 1.0 a. Also, the “Weight of shoots/segments” value in assay [3] (NAA 5.0) worked out at 3.72 g. Besides, the “rooting of the shoots” value in assay [3] (NAA of 0.5˜1.0 mg/L added to the basic MS medium) is given as “induced well”.

On to `OC[C@H]1O[C@@](CO)(O[C@H]2O[C@H](CO)[C@@H](O)[C@H](O)[C@H]2O)[C@@H](O)[C@@H]1O` [Sucrose, sucrose], for which the “Length of shoots (cm)” value in assay [4] (setting [6]) turned out to be 3.2 a cm; in assay [4] (setting [7]), 4.1 a cm; in assay [4] (setting [8]), 4.8 a cm; in assay [4] (setting [9]), 3.9 a cm; in assay [4] (setting [10]), 4.4 a cm. The Numbers of shoots/segments was found to be 3.2 a^a in assay [4] (setting [6]); 3.9 a in assay [4] (setting [7]); 4.0 a in assay [4] (setting [8]); 3.6 a in assay [4] (setting [9]); 3.4 a in assay [4] (setting [10]). Besides, the “Weight of shoots/segments (g)” value stood at 1.66 a g in assay [4] (setting [6]); 2.13 ab g in assay [4] (setting [7]); 2.17 ab g in assay [4] (setting [8]); 2.43 ab g in assay [4] (setting [9]); 2.73 a g in assay [4] (setting [10]). Moreover, the “transparency ratio (%)” value is 3.46 b % in assay [4] (setting [6]); 40.1 a % in assay [4] (setting [7]); 46.7 a % in assay [4] (setting [8]); 42.4 a % in assay [4] (setting [9]); 50.7 a % in assay [4] (setting [10]). Further, the values for the Callus formation result in assay [4] (setting [9]), in assay [4] (setting [10]) and in assay [4] (sucrose of 15˜20 g/L in the medium) were “++”, “+++” and “callus was generated only”, respectively.

The values above are taken from patent publication US7230166B2, “Variety of four-leaf clover and a method for breeding the same” (priority 2002, dated 2007).
